Assays:
Format in all cases: functional
HL-60(TB) = experiment: Growth inhibition of human HL-60(TB) cells assessed as cell growth at 10^-5 M incubated for 48 hrs by sulforhodamine B assay relative to control; details: HL-60, 48 h, read-out: Activity
RPMI-8226 = experiment: Growth inhibition of human RPMI8226 cells assessed as cell growth at 10^-5 M incubated for 48 hrs by sulforhodamine B assay relative to control; details: RPMI-8226, 48 h, read-out: Activity
SR = experiment: Growth inhibition of human SR cells assessed as cell growth at 10^-5 M incubated for 48 hrs by sulforhodamine B assay relative to control; details: read-out: Activity
A549 = experiment: Growth inhibition of human A549/ATCC cells assessed as cell growth at 10^-5 M incubated for 48 hrs by sulforhodamine B assay relative to control; details: A549, 48 h, read-out: Activity
EKVX = experiment: Growth inhibition of human EKVX cells assessed as cell growth at 10^-5 M incubated for 48 hrs by sulforhodamine B assay relative to control; details: read-out: Activity
HOP-62 = experiment: Growth inhibition of human HOP62 cells assessed as cell growth at 10^-5 M incubated for 48 hrs by sulforhodamine B assay relative to control; details: HOP-62, 48 h, read-out: Activity
NCI-H23 = experiment: Growth inhibition of human NCI-H23 cells assessed as cell growth at 10^-5 M incubated for 48 hrs by sulforhodamine B assay relative to control; details: NCI-H23, 48 h, read-out: Activity
NCI-H322M = experiment: Growth inhibition of human NCI-H322M cells assessed as cell growth at 10^-5 M incubated for 48 hrs by sulforhodamine B assay relative to control; details: read-out: Activity
HCT-116 = experiment: Growth inhibition of human HCT116 cells assessed as cell growth at 10^-5 M incubated for 48 hrs by sulforhodamine B assay relative to control; details: HCT-116, 48 h, read-out: Activity
HCT-15 = experiment: Growth inhibition of human HCT15 cells assessed as cell growth at 10^-5 M incubated for 48 hrs by sulforhodamine B assay relative to control; details: HCT-15, 48 h, read-out: Activity
KM12 = experiment: Growth inhibition of human KM12 cells assessed as cell growth at 10^-5 M incubated for 48 hrs by sulforhodamine B assay relative to control; details: KM12, 48 h, read-out: Activity
SW-620 = experiment: Growth inhibition of human SW620 cells assessed as cell growth at 10^-5 M incubated for 48 hrs by sulforhodamine B assay relative to control; details: SW-620, 48 h, read-out: Activity
SF-268 = experiment: Growth inhibition of human SF268 cells assessed as cell growth at 10^-5 M incubated for 48 hrs by sulforhodamine B assay relative to control; details: SF-268, 48 h, read-out: Activity
SF-295 = experiment: Growth inhibition of human SF295 cells assessed as cell growth at 10^-5 M incubated for 48 hrs by sulforhodamine B assay relative to control; details: SF-295, 48 h, read-out: Activity
SF-539 = experiment: Growth inhibition of human SF539 cells assessed as cell growth at 10^-5 M incubated for 48 hrs by sulforhodamine B assay relative to control; details: SF-539, 48 h, read-out: Activity
SNB-75 = experiment: Growth inhibition of human SNB75 cells assessed as cell growth at 10^-5 M incubated for 48 hrs by sulforhodamine B assay relative to control; details: SNB-75, 48 h, read-out: Activity
U-251 = experiment: Growth inhibition of human U251 cells assessed as cell growth at 10^-5 M incubated for 48 hrs by sulforhodamine B assay relative to control; details: U-251, 48 h, read-out: Activity
LOX IMVI = experiment: Growth inhibition of human LOXIMVI cells assessed as cell growth at 10^-5 M incubated for 48 hrs by sulforhodamine B assay relative to control; details: read-out: Activity
M14 = experiment: Growth inhibition of human M14 cells assessed as cell growth at 10^-5 M incubated for 48 hrs by sulforhodamine B assay relative to control; details: M14, 48 h, read-out: Activity
MDA-MB-435 = experiment: Growth inhibition of human MDA-MB-435 cells assessed as cell growth at 10^-5 M incubated for 48 hrs by sulforhodamine B assay relative to control; details: MDA-MB-435, 48 h, read-out: Activity
SK-MEL-28 = experiment: Growth inhibition of human SK-MEL-28 cells assessed as cell growth at 10^-5 M incubated for 48 hrs by sulforhodamine B assay relative to control; details: SK-MEL-28, 48 h, read-out: Activity
SK-MEL-5 = experiment: Growth inhibition of human SK-MEL-5 cells assessed as cell growth at 10^-5 M incubated for 48 hrs by sulforhodamine B assay relative to control; details: SK-MEL-5, 48 h, read-out: Activity
UACC-257 = experiment: Growth inhibition of human UACC257 cells assessed as cell growth at 10^-5 M incubated for 48 hrs by sulforhodamine B assay relative to control; details: UACC-257, 48 h, read-out: Activity
OVCAR-4 = experiment: Growth inhibition of human OVCAR4 cells assessed as cell growth at 10^-5 M incubated for 48 hrs by sulforhodamine B assay relative to control; details: OVCAR-4, 48 h, read-out: Activity
NCI/ADR-RES = experiment: Growth inhibition of human NCI/ADR-RES cells assessed as cell growth at 10^-5 M incubated for 48 hrs by sulforhodamine B assay relative to control; details: read-out: Activity
SK-OV-3 = experiment: Growth inhibition of human SKOV3 cells assessed as cell growth at 10^-5 M incubated for 48 hrs by sulforhodamine B assay relative to control; details: SK-OV-3, 48 h, read-out: Activity
A498 = experiment: Growth inhibition of human A498 cells assessed as cell growth at 10^-5 M incubated for 48 hrs by sulforhodamine B assay relative to control; details: A498, 48 h, read-out: Activity
ACHN = experiment: Growth inhibition of human ACHN cells assessed as cell growth at 10^-5 M incubated for 48 hrs by sulforhodamine B assay relative to control; details: read-out: Activity
SN12C = experiment: Growth inhibition of human SN12C cells assessed as cell growth at 10^-5 M incubated for 48 hrs by sulforhodamine B assay relative to control; details: read-out: Activity
UO-31 = experiment: Growth inhibition of human UO31 cells assessed as cell growth at 10^-5 M incubated for 48 hrs by sulforhodamine B assay relative to control; details: UO-31, 48 h, read-out: Activity
PC-3 = experiment: Growth inhibition of human PC3 cells assessed as cell growth at 10^-5 M incubated for 48 hrs by sulforhodamine B assay relative to control; details: PC-3, 48 h, read-out: Activity
BT-549 = experiment: Growth inhibition of human BT549 cells assessed as cell growth at 10^-5 M incubated for 48 hrs by sulforhodamine B assay relative to control; details: BT-549, 48 h, read-out: Activity
MDA-MB-468 = experiment: Growth inhibition of human MDA-MB-468 cells at 10^-5 M incubated for 48 hrs by sulforhodamine B assay relative to control; details: MDA-MB-468, 48 h, read-out: GI

Compound | growth at 10 µM (HL-60(TB)) | growth at 10 µM (RPMI-8226) | growth at 10 µM (SR) | growth at 10 µM (A549) | growth at 10 µM (EKVX) | growth at 10 µM (HOP-62) | growth at 10 µM (NCI-H23) | growth at 10 µM (NCI-H322M) | growth at 10 µM (HCT-116) | growth at 10 µM (HCT-15) | growth at 10 µM (KM12) | growth at 10 µM (SW-620) | growth at 10 µM (SF-268) | growth at 10 µM (SF-295) | growth at 10 µM (SF-539) | growth at 10 µM (SNB-75) | growth at 10 µM (U-251) | growth at 10 µM (LOX IMVI) | growth at 10 µM (M14) | growth at 10 µM (MDA-MB-435) | other results
O=C1Nc2ccccc2/C1=C/c1cccn1CCCCCn1c2ccccc2c(=O)c2ccccc21 | 47.6% | 22.1% | 76.1% | 81.4% | 71.8% | 58.3% | 69.6% | 98.8% | 69.8% | 28.9% | 12.1% | 100% | 83.3% | 93.1% | 94.2% | 86.7% | 93.4% | 80.3% | 73.3% | 93.6% | growth at 10 µM (SK-MEL-28): 88.1%; growth at 10 µM (SK-MEL-5): 32.2%; growth at 10 µM (UACC-257): 106%; growth at 10 µM (OVCAR-4): 57.1%; growth at 10 µM (NCI/ADR-RES): 60.9%; growth at 10 µM (SK-OV-3): 90.4%; growth at 10 µM (A498): 108%; growth at 10 µM (ACHN): 55.1%; growth at 10 µM (SN12C): 97.1%; growth at 10 µM (UO-31): 49.3%; growth at 10 µM (PC-3): 42%; growth at 10 µM (BT-549): 65.5%; inhibition of growth at 10 µM (MDA-MB-468): 62%
O=C1/C(=C\c2cccn2CCCCCCn2c3ccccc3c(=O)c3ccccc32)c2ccccc2N1c1c(Cl)cccc1Cl | 103% | 93.4% | 91.5% | 96% | 89.5% | 102% | 101% | 98.6% | 103% | 67.1% | 69.8% | 108% | 94.7% | 99.2% | 104% | 95.2% | 97.6% | 98.5% | 98% | 105% | growth at 10 µM (SK-MEL-28): 108%; growth at 10 µM (SK-MEL-5): 94.7%; growth at 10 µM (UACC-257): 99.6%; growth at 10 µM (OVCAR-4): 58.3%; growth at 10 µM (NCI/ADR-RES): 104%; growth at 10 µM (SK-OV-3): 97.4%; growth at 10 µM (A498): 110%; growth at 10 µM (ACHN): 97.7%; growth at 10 µM (SN12C): 103%; growth at 10 µM (UO-31): 70.2%; growth at 10 µM (PC-3): 73.9%; growth at 10 µM (BT-549): 104%; inhibition of growth at 10 µM (MDA-MB-468): 56%
O=C1NC(=O)C(=Cc2cccn2CCCCn2c3ccccc3c(=O)c3ccccc32)C(=O)N1 | 60.1% | 49.4% | 51.6% | 94.6% | 100% | 79.1% | 81.7% | 97.3% | 76.7% | 81.4% | 74.3% | 87.9% | 85.7% | 78.5% | 85.4% | 92.6% | 76% | 82.6% | 82.5% | 79.9% | growth at 10 µM (SK-MEL-28): 95.8%; growth at 10 µM (SK-MEL-5): 73.8%; growth at 10 µM (UACC-257): 91.4%; growth at 10 µM (OVCAR-4): 87.2%; growth at 10 µM (NCI/ADR-RES): 88.4%; growth at 10 µM (SK-OV-3): 100%; growth at 10 µM (A498): 88.1%; growth at 10 µM (ACHN): 92.8%; growth at 10 µM (SN12C): 86.6%; growth at 10 µM (UO-31): 63.4%; growth at 10 µM (PC-3): 86.3%; growth at 10 µM (BT-549): 88.1%; inhibition of growth at 10 µM (MDA-MB-468): 40%
O=C1/C(=C\c2cccn2CCCCCn2c3ccccc3c(=O)c3ccccc32)c2ccccc2N1c1c(Cl)cccc1Cl | 96.8% | 92.3% | 92.3% | 85.9% | 94.6% | 102% | 98% | 110% | 85.9% | 59.8% | 69.4% | 95.7% | 95.7% | 103% | 97% | 87.3% | 93% | 96.6% | 97.2% | 108% | growth at 10 µM (SK-MEL-28): 113%; growth at 10 µM (SK-MEL-5): 96.2%; growth at 10 µM (UACC-257): 100%; growth at 10 µM (OVCAR-4): 62.3%; growth at 10 µM (NCI/ADR-RES): 97.3%; growth at 10 µM (SK-OV-3): 95.6%; growth at 10 µM (A498): 106%; growth at 10 µM (ACHN): 100%; growth at 10 µM (SN12C): 100%; growth at 10 µM (UO-31): 75.5%; growth at 10 µM (PC-3): 73.2%; growth at 10 µM (BT-549): 97.1%; inhibition of growth at 10 µM (MDA-MB-468): 39%
O=C1/C(=C\c2cccn2CCCCn2c3ccccc3c(=O)c3ccccc32)c2ccccc2N1c1c(Cl)cccc1Cl | 106% | 97.4% | 87.7% | 93% | 88.8% | 104% | 101% | 103% | 98.4% | 83.5% | 90.8% | 105% | 94% | 98.8% | 98.9% | 91.9% | 96% | 98.1% | 96% | 103% | growth at 10 µM (SK-MEL-28): 111%; growth at 10 µM (SK-MEL-5): 98.7%; growth at 10 µM (UACC-257): 101%; growth at 10 µM (OVCAR-4): 78.3%; growth at 10 µM (NCI/ADR-RES): 101%; growth at 10 µM (SK-OV-3): 105%; growth at 10 µM (A498): 116%; growth at 10 µM (ACHN): 99.5%; growth at 10 µM (SN12C): 101%; growth at 10 µM (UO-31): 80.8%; growth at 10 µM (PC-3): 78.9%; growth at 10 µM (BT-549): 105%; inhibition of growth at 10 µM (MDA-MB-468): 28%
